Results: patent US11058758B2, “TH1-inducing adjuvant comprising combination of different nucleic acid adjuvants, and use of same” (National Institutes of Biomedical Innovation, Health and …, priority 2014, dated 2021)

Tests used:
[1] = system: C57BL/6J mice; assay: Intramuscular OVA immunization of mice: serum antibodies and splenocyte cytokines; type: in vivo, mouse; settings: for serum anti-OVA IgG1 titer / OVA-specific IL-13 production by splenocytes: i.m. day 0 and day 10 with OVA; for serum anti-OVA IgG1 titer: serum day 17; for OVA-specific IL-13 production by splenocytes: splenocytes day 17, OVA 48 hours
Procedure: Mice were immunized intramuscularly on day 0 and day 10 with K3 CpG (10 μg), 3′3′/2′3′-cGAMP (1 μg), c-di-GMP (1 μg), DMXAA (50 μg), or OVA (10 μg) comprising or not comprising K3+3′3′/2′3′-cGAMP/c-di-GMP/DMXAA. On day 17, OVA specific sera IgG1 and IgG2c were measured by ELISA.
(B—C) mice were immunized intramuscularly on day 0 and day 10 with K3 CpG (10 μg), 3′3′/2′3′-cGAMP (1 μg), c-di-GMP (1 μg), DMXAA (50 μg), or OVA (10 μg) comprising or not comprising K3+3′3′/2′3′-cGAMP/c-di-GMP/DMXAA. Splenocytes were stimulated for 48 hours with OVA (10 μg/ml) protein. Production of IFNγ and IL-13 was measured by ELISA.
On day 17, the splenocytes were isolated and stimulated for 48 hours with a MHC class I (OVA257) or a MHC class II (OVA323) specific OVA or an OVA peptide.
On day 17, OVA specific sera IgG1 and IgG2c were measured by ELISA as previously described [Kuroda et al., Immunity. (2011) 34; 514-526]. The secondary antibodies used in ELISA of IgG2c and IgG1 were horseradish peroxidase conjugate goat anti-mouse IgG2c and IgG1 (Bethyl Laboratories, Montgomery, Tex.). On day 17, splenocytes were collected to prepare a single cell suspension using gentle MACS dissociator (miltenyi Biotech, Gladbach, Germany). […] IFNγ and IL-13 production was measured by ELISA.

[2] = system: mice; assay: OVA specific serum IgE after immunization; settings: i.m. day 0 and day 10, serum day 17
[3] = system: IRF3/7, STING, MyD88, IL-12, and type I IFN signaling
Procedure: The vertical axis of the left panel indicates the concentration of IFNγ (ng/ml), and the vertical axis of the right panel indicates the concentration of IL-13 (ng/ml). […] The splenocytes were stimulated for 48 hours with OVA.
On day 17, OVA specific sera IgG2c and IgG1 were measured by ELISA.
The vertical axis of the left panel indicates the concentration of IFNγ (ng/ml), and the vertical axis of the right panel indicates the concentration of IL-13 (ng/ml). […] (D) The splenocytes were stimulated for 48 hours with OVA proteins.
On day 17, OVA specific serum IgG2c and IgG1 were measured by ELISA. Further, splenocytes were stimulated for 48 hours with OVA to measure IFNγ production by ELISA.
On day 17, OVA specific sera IgG2c and IgG1 were measured by ELISA. Further, splenocytes were stimulated for 48 hours with an OVA protein to measure IFNγ production by ELISA.

Row | SMILES | serum anti-OVA IgG1 titer [1] | OVA-specific IL-13 production by splenocytes [1] | adjuvant type ([1]; OVA immunization, antibody and T cell responses) | IgE of the serum in mice immunized with OVA [2] | dependency of Th2 responses on type I IFN signaling ([3]; IFNAR KO mice) | dependency of induced antibody responses on type I IFN signaling ([3]; IFNAR KO mice) | dependency of induced T cell responses on IRF3/7 and MyD88 ([3]; IRF3/7 DKO and MyD88 KO mice) | dependency of induced antibody and T cell responses on STING ([3]; Tmem173gt mice)
1 | Cc1ccc2c(=O)c3cccc(CC(=O)O)c3oc2c1C [DMXAA] | high | production of OVA-specific IL-13 | – | – | – | – | – | –
2 | Nc1nc2c(ncn2[C@@H]2O[C@@H]3COP(=O)(O)O[C@H]4[C@@H](O)[C@H](n5cnc6c(=O)[nH]c(N)nc65)O[C@@H]4COP(=O)(O)O[C@H]3[C@H]2O)c(=O)[nH]1 [c-di-GMP] | high | production of OVA-specific IL-13 | – | – | – | – | – | –
3 | Nc1nc2c(ncn2[C@@H]2O[C@@H]3COP(=O)(O)O[C@H]4[C@@H](O)[C@H](n5cnc6c(N)ncnc65)O[C@@H]4COP(=O)(O)O[C@H]3[C@H]2O)c(=O)[nH]1 [cGAMP, 3′3′-cGAMP] | high | production of OVA-specific IL-13 | type 2 adjuvant | induce IgE | not dependent thereon | dependent on type I IFN signaling | partially dependent on IRF3/7 and surprisingly dependent on MyD88 | completely dependent on STING
